Measurements: BigSolDB 2.1

CC(C)C[C@H](N)C(=O)O
solubility (mole fraction)
Details | 283.15 K | 288.15 K | 293.15 K | 298.15 K | 303.15 K | 308.15 K | 313.15 K | 318.15 K | 323.15 K | 328.15 K
in 1,4-dioxane | – | 3.61e-05 | 5.3e-05 | 7.25e-05 | 9.39e-05 | 0.000122 | 0.000149 | 0.00019 | 0.000238 | 0.000309
in acetone | 3.16e-05 | 4.52e-05 | 6.31e-05 | 8.39e-05 | 0.00011 | 0.000145 | 0.000179 | 0.000218 | 0.000269 | –
in acetonitrile | 3.87e-05 | 4.44e-05 | 5.02e-05 | 5.71e-05 | 6.68e-05 | 7.59e-05 | 8.6e-05 | 0.000102 | 0.000123 | –
in ethanol | 0.000146 | 0.00015 | 0.000156 | 0.000171 | 0.00019 | 0.000206 | 0.000221 | 0.000286 | 0.00034 | –
in ethyl acetate | 0.000156 | 0.000169 | 0.000197 | 0.000222 | 0.00026 | 0.000303 | 0.000341 | 0.000396 | 0.000449 | –
in isobutanol | 0.000152 | 0.000157 | 0.000162 | 0.000175 | 0.000201 | 0.000228 | 0.000254 | 0.000304 | 0.00035 | –
in isopropanol | 0.000156 | 0.00016 | 0.000173 | 0.000187 | 0.000212 | 0.000254 | 0.000271 | 0.000318 | 0.000368 | –
in methanol | 0.000558 | 0.000588 | 0.000655 | 0.000686 | 0.000744 | 0.000817 | 0.000896 | 0.001 | 0.00118 | –
in methyl acetate | 0.000158 | 0.000162 | 0.000168 | 0.000178 | 0.000192 | 0.000211 | 0.000227 | 0.000254 | 0.000287 | –
in n-butanol | 2.59e-05 | 2.78e-05 | 4.16e-05 | 5.42e-05 | 7.83e-05 | 0.000103 | 0.000129 | 0.000171 | 0.000215 | –
in n-propanol | 9.7e-05 | 0.000107 | 0.000123 | 0.000142 | 0.000163 | 0.000187 | 0.000217 | 0.00026 | 0.000316 | –
in water | 0.00322 | 0.00326 | 0.00331 | 0.00339 | 0.00348 | 0.00358 | 0.00374 | 0.00385 | 0.00404 | –
